One assay has as its system S. pneumoniae. Nature of the assay: Antibacterial activity, standard MIC assay modified by inclusion of cyclodextrin. In kind it is cell-based. To be noted: Streptococcus pneumoniae; some strains of S. pneumoniae. The procedure: (§1) Compounds of the present invention were assayed for antibacterial activity against a range of pathogenic organisms (strains of S aureus, Spneumoniae, Efaecalis, H influenzae and M catarrhalis) in a standard MIC assay modified by the inclusion of cyclodextrin, to assist with solubility.

For another assay, the system named is S. aureus. Described as above. In kind it is cell-based. The settings on record: Staphylococcus aureus; some strains of S. aureus. The procedure:
as §1

The subject of the next assay is M Catarrhalis. Described as above. In kind it is cell-based. To be noted: some strains of M Catarrhalis. How it is done:
as §1

The next assay deals with E. faecalis. Described as above. To be noted: Enterococcus faecalis; some strains of E. faecalis. It counts as cell-based. How it is done:
as §1

In a further assay the target is T1, S. aureus MRS (Staphylococcus aureus, UniProt Q5HII6).
T1 construct: made in house
Nature of the assay: Enzyme inhibition (S. aureus MRS), aminoacylation assay. It counts as biochemical. How it is done: 1. Enzyme Inhibition (S. aureus MRS)—Aminoacylation Assay
Compounds of the present invention may be assayed for their ability to inhibit the enzyme methionyl tRNA synthetase (MRS), using recombinant S. aureus MRS, as follows:
The reaction is started by adding 20 μl appropriately diluted pure enzyme (pre-incubated with inhibitor) to 25 μl reaction mix for 10 min at room temperature. The reaction is terminated by the addition of 100 μl 5% trichloroacetic acid, 10% glycerol. The TCA precipitate is harvested onto dry Unifilter GFC plates using a Packard Filtermate Cell Harvester. The filters are washed with 4×200 μl of 50% industrial methylated spirit, before drying. 30 μl of Microscint 20 is added to each well and plates are counted on a TopCount. (Packard 96 well counter).
Mixed E. coli MRE 600 tRNA and ATP were purchased from Boehringer-Mannheim, L-[^35 S] methionine from Amersham and other reagents from Sigma.
Pure recombinant S. aureus MRS (EP application number 97300317.1, SmithKline Beecham) was obtained using standard purification procedures. The enzyme is diluted in Dilution Buffer which consists of 10 mM Tris/Cl, 2 mM DTT pH 7.9.

A further assay deals with H. influenzae. Nature of the assay: Antibacterial activity, standard MIC assay modified by inclusion of cyclodextrin. It counts as cell-based. The procedure:
as §1

T1 sequence (Q5HII6 whole entry): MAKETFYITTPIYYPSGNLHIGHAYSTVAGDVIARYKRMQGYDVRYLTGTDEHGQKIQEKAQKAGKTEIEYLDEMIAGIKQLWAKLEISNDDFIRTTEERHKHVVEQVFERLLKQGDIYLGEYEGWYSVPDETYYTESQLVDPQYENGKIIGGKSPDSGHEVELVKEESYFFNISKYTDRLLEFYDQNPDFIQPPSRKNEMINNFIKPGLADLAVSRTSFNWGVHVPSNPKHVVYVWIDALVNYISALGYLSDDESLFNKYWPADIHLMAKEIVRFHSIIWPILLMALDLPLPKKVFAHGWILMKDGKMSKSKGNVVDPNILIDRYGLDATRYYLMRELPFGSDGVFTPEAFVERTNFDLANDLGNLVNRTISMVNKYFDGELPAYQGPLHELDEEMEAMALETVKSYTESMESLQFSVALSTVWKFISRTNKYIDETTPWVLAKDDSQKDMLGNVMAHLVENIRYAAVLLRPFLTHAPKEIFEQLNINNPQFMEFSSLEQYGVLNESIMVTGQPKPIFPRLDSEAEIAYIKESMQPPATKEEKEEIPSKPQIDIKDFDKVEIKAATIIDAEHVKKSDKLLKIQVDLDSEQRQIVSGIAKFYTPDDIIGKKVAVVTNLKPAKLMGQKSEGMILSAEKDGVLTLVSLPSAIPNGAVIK

What is called MIC is the smallest concentration in the dilution series that meets the test's criterion for growth inhibition. The low end stands for greater potency, the high end for weaker potency. As a reminder, the IC50 is the concentration that inhibits the measured activity by half. Higher therefore signals weaker potency. Take `COc1cc(CNCCCNc2nn3nccc3[nH]2)c2[nH]cc(Cl)c2c1.Cl.Cl` [Example 1, 2-[3-(3-Chloro-5-methoxy-1H-indol-7-ylmethylamino)propylamino]-1H-pyrazolo[1,5-b][1,2,4]triazole dihydrochloride]: the minimal inhibitory concentration (MIC) in the assay on S. pneumoniae, against S. aureus, in the assay on M Catarrhalis and in the assay with E. faecalis was below 32 µg/mL each time. The compound further yielded an IC50 against S. aureus MRS below 10 nM.

Take `Cc1c(CNCCCNc2nn3nccc3[nH]2)sc(Br)c1Br.Cl.Cl` [Example 2, 2-[3-(4,5-Dibromo-3-methylthien-2-ylmethylamino)propylamino]-1H-pyrazolo[1,5-b][1,2,4]triazole dihydrochloride]: the “antibacterial activity against H. influenzae” value in the assay with H. influenzae is reported as “active”. On S. aureus MRS, this compound registered an IC50 below 10 nM.

The values are drawn from US20060287360A1, “Novel compounds” (REPLIDYNE, INC., priority 2003, published 2006).
